From US20130052162A1, “BOOSTING IMMUNE DEFENSE BY UPREGULATING CCAAT/ENHANCER BINDING PROTEIN EPSILON” (CEDARS-SINAI MEDICAL CENTER, priority 2010, published 2013)
Values joined by “and” are separate entries in the source; they are usually repeats but may differ in a detail not shown here. Equal values may be shown once. “Also recorded” adds a separate entry of the source.

Legend:
[1] = CBC of peripheral whole blood of WT mice treated in vivo with NAM; design: species or system mouse
Experimental: WT mice treated in vivo with NAM (250 mg/kg/day; i.p.) or PBS (control) for a) 24 h, b) 48 h, and c) 72 h. Then, peripheral whole blood was removed from each of the mice and CBCs were performed. […] (Table 2A-C)

[2] = Ex vivo hematological study (CBC) of human donor blood; assay type: cell-based; settings: 1 mM NAM ex vivo
Experimental: Blood from human donors (no antibiotics within the prior 2 weeks, no immune-boosting supplements, and otherwise healthy) was collected in ETDA tubes. CBC was performed on each blood sample at time zero. Each blood sample was then treated ex vivo with NAM (1 mM) or PBS (control) for 24 h in 6-well non-treated plates at 37 C, 5% CO2 and 95%% humidity with gentle rocking. After 24 h of treatment, CBCs were performed on each blood sample. […] (Table 3)

[3] = tested on: S. aureus; experiment: Murine peripheral whole blood killing assay; assay type: cell-based, mouse
[4] = tested on: CEBPE promoter region; experiment: ChIP: histone H3 acetylation at CEBPE promoter in BMMC; assay type: cell-based, mouse; settings: WT BMMC, 1 mM NAM, 12 h, vs untreated
Experimental: ChIP assay kit (Upstate Biotechnology, Lake Placid, N.Y.) was used, and chromatin was prepared for IP as instructed by the manufacturer. The sonicated chromatin was immunoprecipitated with either 5 μg of anti-acetylated histone H3 antibody or normal rabbit IgG antibody as negative control (Upstate Biotechnology). Immunoprecipitated DNA was subsequently analyzed by PCR using primers specific for the CEBPE promoter region; input chromatin was analyzed for β-actin mRNA as a positive control. The optimal reaction conditions for PCR were determined for each primer pair. Primers were denatured at 95° C. for 1 min and annealed at 60° C. for 1 min, followed by elongation at 72° C. for 1 min; each product was amplified 35 cycles. PCR products were analyzed by 2.5% agarose/ethidium bromide gel electrophoresis. […] The primers used for ChIP analysis were: human CEBPE 5′-GCTTTGGCCAAGCCCAGGGA-3′ (forward) (SEQ ID NO: 9), 5′-TGCTGGGCTCCACCTACCCC-3′ (reverse) (SEQ ID NO: 10); human β-actin: 5′-CTCCTCGGGAGCCACACGCA-3′ (forward) (SEQ ID NO: 1), 5′-TAGGGGAGCTGGCTGGGTGG-3′ (reverse) (SEQ ID NO: 12); murine CEBPE: 5′-TGAGGCTGCAGCTTGCCTGG-3′ (forward) (SEQ ID NO: 13), 5′-ACCAAGCTACCCCTGGCCCT-3′ (reverse) (SEQ ID NO: 14), murine β-actin: 5′-ACCTGTTACTTTGGGAGTGGCAAGC-3′ (forward) (SEQ ID NO: 15), 5′-GTCGTCCCAGTTGCTAACAATGCC-3′ (reverse) (SEQ ID NO: 16).

[5] = human trials, patients undergoing radiotherapy; cited from earlier work
[6] = 24 h post-treatment, 250 mg/kg/d, individual mice, 250 mg/kg/day
[7] = t = 24 h, individual human donors #1-5

NC(=O)c1cccnc1 [NAM, Nicotinamide]
Hematological Abnormalities ([1]; 24 h post-treatment, 250 mg/kg/d, individual mice): Normal
LY [1, 6]: 3.97 K/uL and 1.89 K/uL and 3.84 K/uL and 76.92% and 67.88% and 71.36%
MO [1, 6]: 0.18 K/uL and 0.28 K/uL and 3.77% and 6.47% and 5.28%
NE [1, 6]: 0.95 K/uL and 0.65 K/uL and 1.00 K/uL and 18.47% and 23.40% and 18.67%
WBC [1, 6]: 5.16 K/uL and 2.78 K/uL and 5.38 K/uL
WBC, Mean ([1]; 24 h post-treatment, 250 mg/kg/d, mean of 10 mice): 3.63 K/uL
Hematological Abnormalities ([1]; 48 h post-treatment, 250 mg/kg/d, individual mice): Normal
WBC ([1]; 48 h post-treatment, 250 mg/kg/d, individual mice, 250 mg/kg/day): 6.34 K/uL and 1.86 K/uL and 3.30 K/uL and 4.64 K/uL and 2.70 K/uL
WBC, Mean ([1]; 48 h post-treatment, 250 mg/kg/d, mean of 5 mice): 3.77 K/uL
Hematological Abnormalities ([1]; 72 h post-treatment, 250 mg/kg/d, individual mice): Normal
WBC ([1]; 72 h post-treatment, 250 mg/kg/d, individual mice, 250 mg/kg/day): 2.20 K/uL and 4.08 K/uL and 5.66 K/uL and 2.24 K/uL and 3.62 K/uL and 6.22 K/uL and 3.06 K/uL and 5.48 K/uL
WBC, Mean ([1]; 72 h post-treatment, 250 mg/kg/d, mean of 8 mice): 4.07 K/uL
CBCs, NAM- vs PBS-treated mice ([1]; mouse, in vivo): No differences in CBCs
CBCs, NAM- vs PBS-treated and untreated blood ([2]; 24 h): No differences in CBCs
ABS MONOS [2, 7]: 0.6 1000/UL and 0.5 1000/UL and 0.2 1000/UL and 0.1 1000/UL (2×)
ABS POLYS [2, 7]: 5.4 1000/UL and 2.9 1000/UL and 5.2 1000/UL and 4.2 1000/UL and 4.3 1000/UL
MONOS [2, 7]: 7% and 9% and 4% and 2% (2×)
POLYS [2, 7]: 61% and 51% and 76% and 63% and 70%
WBC COUNT [2, 7]: 8.9 1000/UL and 5.6 1000/UL and 6.9 1000/UL and 6.7 1000/UL and 6.1 1000/UL
CFU recovered, NAM- vs PBS-treated blood ([3]; C/EBPε−/− blood, 1 mM NAM 24 h, 1 h and 3 h of infection): no impact; also recorded: not statistically different
CFU recovered, NAM- vs PBS-treated blood ([3]; WT blood, 1 mM NAM 24 h, 1 h and 3 h of infection): Significantly less CFU
enhanced killing of S. aureus vs PBS ([3]; WT blood, 1 mM NAM pretreatment 24 h): more than 3 log10
CFU recovered, NAM- vs PBS-treated blood ([3]; WT blood, 1 mM NAM pretreatment for only 4 h): did not result in CFU differences
increase in histone acetylation at the CEBPE promoter [4]: 3 fold
plasma concentration routinely achieved [5]: 1000 µM
